“And” between values parts separate entries of the source, which are not always exact repeats. Equal values may be shown once.
Biological target: FFA1 (Homo sapiens, UniProt O14842)
Experiment: Ca2+ mobilisation (Fura2) in Flp-In T-REx 293 cells expressing Nluc-FFA1, FFA1-Nluc or untagged FFA1
Assay type: cell-based
Design: expressed in transfected cells
Conditions: for pEC50: Ca2+ data, mean±SEM; for Ca2+ Response as a % of T360 Response: single technical replicates
Experimental: Nluc-FFA1, FFA1-Nluc or untagged FFA1 Flp-In T-REx 293 cells were plated at 50,000 cells per well in poly-D-lysine coated black clear bottom 96-well plates. Cells were then cultured for 24 h until reaching confluency before culture medium was replaced with medium containing 100 ng/mL of doxycycline to induce receptor expression. Cells were cultured for a further 24 h before the assay. On the day of the assay culture medium was removed and replaced with medium containing 3 μM Fura2-AM Ca^2+ dye. […] Fura2 fluorescent emission at 520 nm following excitation with each of 340 and 380 nm was measured in regular intervals both before and after adding test compounds for a total of 90 s per well. Calcium responses were determined by taking the peak 340/380 ratio after first subtracting the ratios obtained prior to addition of test compound.

Chain of FFA1 (O14842 whole entry): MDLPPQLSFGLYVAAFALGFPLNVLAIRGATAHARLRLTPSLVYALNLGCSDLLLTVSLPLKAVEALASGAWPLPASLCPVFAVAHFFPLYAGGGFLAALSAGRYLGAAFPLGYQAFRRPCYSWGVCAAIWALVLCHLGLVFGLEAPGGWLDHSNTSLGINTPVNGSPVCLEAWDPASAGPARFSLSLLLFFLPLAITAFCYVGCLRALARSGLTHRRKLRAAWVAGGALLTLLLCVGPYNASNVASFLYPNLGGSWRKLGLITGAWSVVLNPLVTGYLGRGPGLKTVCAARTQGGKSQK

pEC50 (NR = No response)	EMax (percentage of response to 10 μM T360, NR = No response) [%]	Structure (SMILES)	Ca2+ Response as a % of T360 Response (log[Ligand] -5)	Ca2+ Response as a % of T360 Response (log[Ligand] -5.5)	Ca2+ Response as a % of T360 Response (log[Ligand] -6)	Ca2+ Response as a % of T360 Response (log[Ligand] -6.5)	Ca2+ Response as a % of T360 Response (log[Ligand] -7)	Ca2+ Response as a % of T360 Response (log[Ligand] -8)	Ca2+ Response as a % of T360 Response (log[Ligand] -9)
5.29±0.04		COc1ccc(C(=O)NCC(C)(C)CNc2ccc([N+](=O)[O-])c3nonc23)c(N2CCC(COc3cccc(C(CC(=O)O)C4CC4)c3)CC2)c1.O=C(O)C(F)(F)F (stereo not shown) [TUG-2489]	102.5277% and 96.3666% and 102.3411% and 80.8186% and 76.8959%	75.8584% and 55.2490% and 64.4948% and 77.9746% and 61.7732% and 62.6510%	11.4043% and 15.1652% and 19.0434% and 4.1691% and 0.1177% and 9.7037%	0.7033% and -0.7918% and -3.1732% and -6.5594% and 0.0827% and 3.4744%	-3.1258% and 4.2395% and 1.6831% and -3.2821% and -0.2376% and 1.2224%	-0.4995% and 5.1700% and -1.2657% and 6.6097% and 0.3774% and -0.3774%	0.4589% and 3.5934% and -2.5884% and -5.3677% and 0.8677% and 2.5453%
6.63±0.10	103±12	COc1ccc(C(=O)N(CCNC(=O)OC(C)(C)C)c2ccccc2)c(N2CCC(COc3cccc(C(CC(=O)O)C4CC4)c3)CC2)c1.Cl (stereo not shown) [TUG-2455]							
